Experimental data: patent US20230277560A1, “USE OF C[…] THE TREATMENT OF SEIZURES ASSOCIATED WITH CHRNA4 MUTATION” (GW Research Limited, priority 2020, published 2023)

System: seizures associated with CHRNA4 mutation
Assay: Open label, expanded-access program: seizure frequency in a patient with CHRNA4 mutation
Type: in vivo, human
Details: for Seizure frequency, Absence: baseline 0.0; for Seizure frequency, Absence / Seizure frequency, Tonic-clonic / Seizure frequency, Atonic / Seizure frequency, Myoclonic: concomitant rufinamide; for Seizure frequency, Tonic-clonic: baseline 0.4; for Seizure frequency, Atonic / Seizure frequency, Myoclonic: baseline 2800.0
Procedure: The subject was required to be on one or more AEDs at stable doses for a minimum of two weeks prior to baseline and to have stable vagus nerve stimulation (VNS) settings and ketogenic diet ratios for a minimum of four weeks prior to baseline.
The patient was administered botanically derived purified CBD in a 100 mg/mL sesame oil-based solution. Dose was increased to a goal of 25 mg/kg/day.
A maximum dose of 50 mg/kg/day could be utilised for the patient if they were tolerating the medication but had not achieved seizure control; the patient had further weekly titration by 5 mg/kg/day.
There was one patient in this study, and they received CBD for 24 weeks. Modifications were made to concomitant AEDs as per clinical indication.
Seizure frequency, intensity, and duration were recorded by caregivers in a diary during a baseline period of at least 28 days. Changes in seizure frequency relative to baseline were calculated after at least 2 weeks and at defined timepoints of treatment.
Patients may be defined as responders if they had more than 50% reduction in seizure frequency compared to baseline. The percent change in seizure frequency was calculated as follows: […]
The percent change of seizure frequency may be calculated for any time interval where seizure number has been recorded. For the purpose of this example the percent change of seizure frequency for the end of the treatment period was calculated as follows: […]

[1] = Patient 1, 4 weeks, CBD 15.0 mg/kg/day
[2] = Patient 1, 8 weeks, CBD 25.0 mg/kg/day
[3] = Patient 1, 12 weeks, CBD 25.0 mg/kg/day
[4] = Patient 1, 16 weeks, CBD 25.0 mg/kg/day
[5] = Patient 1, 24 weeks, CBD 23.8 mg/kg/day
[6] = Patient 1, treated for 24 weeks, relative to baseline

C=C(C)[C@@H]1CCC(C)=C[C@H]1c1c(O)cc(CCCCC)cc1O [CBD, cannabidiol]
Seizure frequency, Absence [1]: 0.0 | Seizure frequency, Tonic-clonic [1]: 1.0 | Seizure frequency, Atonic [1]: 2800.0 | Seizure frequency, Myoclonic [1]: 2800.0 | Seizure frequency, Absence [2]: 0.0 | Seizure frequency, Tonic-clonic [2]: 0.0 | Seizure frequency, Atonic [2]: 2800.0 | Seizure frequency, Myoclonic [2]: 2800.0 | Seizure frequency, Absence [3]: 0.0 | Seizure frequency, Tonic-clonic [3]: 1.0 | Seizure frequency, Atonic [3]: 2561.0 | Seizure frequency, Myoclonic [3]: 2560.0 | Seizure frequency, Absence [4]: 84.0 | Seizure frequency, Tonic-clonic [4]: 3.0 | Seizure frequency, Atonic [4]: 1260.0 | Seizure frequency, Myoclonic [4]: 840.0 | frequency of atonic and myoclonic seizures (overall statement) (Patient 1, 24 weeks treatment): effective in reducing the frequency | Seizure frequency, Absence [5]: 140.0 | Seizure frequency, Tonic-clonic [5]: 18.7 | Seizure frequency, Atonic [5]: 840.0 | Seizure frequency, Myoclonic [5]: 840.0 | reduction in atonic seizures over the treatment period [6]: 70% | reduction in myoclonic seizures over the treatment period [6]: 70% | number of seizures associated with CHRNA4 mutation (conclusion) (one patient, 24 weeks treatment): significantly reduce | tonic-clonic, atonic, myoclonic and absence seizures (summary statement) (open label, expanded-access program, patients with CHRNA4 mutation): significant reduction
